Results on 22 compounds are retold here after patent US20240391882A1 (Mirati Therapeutics, Inc., priority 2023, published 2024).

What all share (assay type): cell-based
The test system of experiment [1] is T47D (PI3Kα H1047R mutant) cells. Nature of the experiment: Cell viability (CellTiter-Glo 2.0) in T47D cells. The settings on record: Homo sapiens, T47D, 72 h, approximately 72 hours. Summed up: (§1)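 IC50 values derive from four-parameter fits of CellTiter-Glo luminescence expressed as percent of vehicle control. Cells (T47D or SKBR3) were plated at 1000/well the day before dosing and incubated about 72 h at 37° C with a 10-point, 1:4 series starting at 10 μm.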
(In general: In ATP-based viability assays light output follows the ATP content of the culture.)

For experiment [2], the system named is pAKT in T47D (PI3Kα H1047R mutant) cells. As to the kind of experiment: Inhibition of pAKT (alphaLISA Surefire Ultra AKT 1/2/3 pS473) in T47D cells. The settings on record: Homo sapiens; T47D (PI3Kα H1047R mutant) cells, 24 hr compound incubation, alphaLISA pS473; read-out: T47D (H1047R) pAKT 24 hr (IC50). Summed up:
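AlphaLISA read-out of AKT pS473 in lysates after roughly 24 h compound exposure at 37° C in HBSS. Ten concentrations, 1:4 dilutions from a 10.4 μm top dose. Percent of control uses alpelisib at 3.125 μm as background and DMSO as vehicle; four-parameter curve gives IC50.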
For orientation: Alpha assays give light when donor and acceptor beads are brought close together.

In experiment [3] the test system is SKBR3 (PI3Kα wild type) cells. Nature of the experiment: Cell viability (CellTiter-Glo 2.0) in SKBR3 cells. Conditions: Homo sapiens, SK-BR-3; SKBR3 (PI3Kα wild type) cells, approximately 72 hours, CellTiter-Glo 2.0; read-out: SKBR3 (WT) Viability IC50. Summed up:
as §1

For `C[C@@H](Nc1ccc(Cl)nc1C(=O)O)c1cc(Cl)cc2nc(C#N)c(N3CC4(COC4)C3)nc12` [Example 145], the results for the IC50 in experiment [1], in experiment [2] and in experiment [3] were 90 nM, 1.4 nM and 9960 nM, respectively.

For `Cc1cc([C@@H](C)Nc2ccc(Cl)nc2C(=O)O)c2nc(N3CCO[C@H](C(F)(F)F)C3)c(C#N)nc2c1` [Example 190A, 6-chloro-3-(((R)-1-(2-cyano-7-methyl-3-((S)-2-(trifluoromethyl)morpholino)quinoxalin-5-yl)ethyl)amino)picolinic acid], the IC50 (as a rule, the midpoint of a concentration-inhibition curve) was 271 nM in experiment [1], 4.4 nM in experiment [2] and above 10000 nM in experiment [3].

Take `Cc1cc([C@@H](C)Nc2ccc(Cl)nc2C(=O)O)c2nc(N3CCO[C@@H](C(F)(F)F)C3)c(C#N)nc2c1` [Example 190B, 6-chloro-3-(((R)-1-(2-cyano-7-methyl-3-((R)-2-(trifluoromethyl)morpholino)quinoxalin-5-yl)ethyl)amino)picolinic acid]: the IC50 in experiment [1] is 764 nM; in experiment [2], 17.3 nM; in experiment [3], above 10000 nM.

`CO[C@H]1CCCN(c2nc3c([C@@H](C)Nc4ccc(Cl)nc4C(=O)O)cc(C)cc3nc2C#N)C1` [Example 196A, 6-chloro-3-(((R)-1-(2-cyano-3-((S)-3-methoxypiperidin-1-yl)-7-methylquinoxalin-5-yl)ethyl)amino)picolinic acid]: the IC50 in experiment [1] is 62.1 nM; in experiment [2] it was 1.2 nM; in experiment [3], above 10000 nM.

In the case of `CO[C@@H]1CCCN(c2nc3c([C@@H](C)Nc4ccc(Cl)nc4C(=O)O)cc(C)cc3nc2C#N)C1` [Example 196B, 6-chloro-3-(((R)-1-(2-cyano-3-((R)-3-methoxypiperidin-1-yl)-7-methylquinoxalin-5-yl)ethyl)amino)picolinic acid], the IC50 was 61.4 nM in experiment [1], 2.2 nM in experiment [2] and above 10000 nM in experiment [3].

As to `Cc1cc([C@@H](C)Nc2ccc(Cl)nc2C(=O)O)c2nc(N3CCN(c4cc(C)no4)CC3)c(C#N)nc2c1` [Example 200, (R)-6-chloro-3-((1-(2-cyano-7-methyl-3-(4-(3-methylisoxazol-5-yl)piperazin-1-yl)quinoxalin-5-yl)ethyl)amino)picolinic acid], the IC50 amounted to 17.2 nM in experiment [1], 1.2 nM in experiment [2] and 5470 nM in experiment [3].

Regarding `Cc1cc([C@@H](C)Nc2ccc(Cl)nc2C(=O)O)c2nc(N3CCN(c4cc(C)on4)CC3)c(C#N)nc2c1` [Example 201, (R)-6-chloro-3-((1-(2-cyano-7-methyl-3-(4-(5-methylisoxazol-3-yl)piperazin-1-yl)quinoxalin-5-yl)ethyl)amino)picolinic acid], the IC50 turned out to be 10.5 nM in experiment [1], 0.27 nM in experiment [2] and 7810 nM in experiment [3].

In the case of `Cc1cc([C@@H](C)Nc2ccc(Cl)nc2C(=O)O)c2nc(N3CCC(N4CCCCC4=O)CC3)c(C#N)nc2c1` [Example 202, (R)-6-chloro-3-((1-(2-cyano-7-methyl-3-(2-oxo-[1,4′-bipiperidin]-1′-yl)quinoxalin-5-yl)ethyl)amino)picolinic acid], the IC50 in experiment [1] is 76.4 nM; in experiment [2], 1.4 nM; in experiment [3], 9920 nM.

With `Cc1cc([C@@H](C)Nc2cccnc2C(=O)O)c2nc(N3CCOCC3)c(C#N)nc2c1` [Example 203, (R)-3-((1-(2-cyano-7-methyl-3-morpholinoquinoxalin-5-yl)ethyl)amino)picolinic acid], the IC50 came out at 559 nM in experiment [1], 25.1 nM in experiment [2] and 2220 nM in experiment [3].

Regarding `Cc1cc([C@@H](C)Nc2cccnc2C(=O)O)c2nc(N3CCC(F)(F)C3)c(C#N)nc2c1` [Example 204, (R)-3-((1-(2-cyano-3-(3,3-difluoropyrrolidin-1-yl)-7-methylquinoxalin-5-yl)ethyl)amino)picolinic acid], the IC50 in experiment [1] was determined as 393 nM; in experiment [2], 58.1 nM; in experiment [3], 1850 nM.

Take `COC[C@H]1[C@H]2CN(c3nc4c([C@@H](C)Nc5ccc(Cl)nc5C(=O)O)cc(C)cc4nc3C#N)C[C@@H]12` [Example 213, 6-chloro-3-(((R)-1-(2-cyano-3-((1R,5S,6S)-6-(methoxymethyl)-3-azabicyclo[3.1.0]hexan-3-yl)-7-methylquinoxalin-5-yl)ethyl)amino)picolinic acid]: the IC50 was 61 nM in experiment [1], 0.91 nM in experiment [2] and 9550 nM in experiment [3].

Take `Cc1cc([C@@H](C)Nc2ccc(Cl)nc2C(=O)O)c2nc(N3CC4C(F)C4C3)c(C#N)nc2c1` (stereo partly drawn) [Example 215, 6-chloro-3-(((1R)-1-(2-cyano-3-(6-fluoro-3-azabicyclo[3.1.0]hexan-3-yl)-7-methylquinoxalin-5-yl)ethyl)amino)picolinic acid]: the IC50 in experiment [1] was 28 nM; in experiment [2], 1.6 nM; in experiment [3], above 10000 nM.

For the compound `Cc1cc([C@@H](C)Nc2ccc(Cl)nc2C(=O)O)c2nc(N3CCc4cnccc4C3)c(C#N)nc2c1` [Example 216, (R)-6-chloro-3-((1-(2-cyano-3-(3,4-dihydro-2,6-naphthyridin-2(1H)-yl)-7-methylquinoxalin-5-yl)ethyl)amino)picolinic acid], the IC50 in experiment [1] was 48 nM; in experiment [2], 0.45 nM; in experiment [3] it was above 10000 nM.

Regarding `Cc1cc([C@@H](C)Nc2ccc(Cl)nc2C(=O)O)c2nc(N3CCc4ccc(C#N)cc4C3)c(C#N)nc2c1` [Example 217, (R)-6-chloro-3-((1-(2-cyano-3-(7-cyano-3,4-dihydroisoquinolin-2(1H)-yl)-7-methylquinoxalin-5-yl)ethyl)amino)picolinic acid], the IC50 in experiment [1] was 64 nM; in experiment [2], 0.69 nM; in experiment [3], above 10000 nM.

In the case of `Cc1cc([C@@H](C)Nc2ccc(Cl)nc2C(=O)O)c2nc(N3CCc4c(ccn(C)c4=O)C3)c(C#N)nc2c1` [Example 221, (R)-6-chloro-3-((1-(2-cyano-7-methyl-3-(6-methyl-5-oxo-3,4,5,6-tetrahydro-2,6-naphthyridin-2(1H)-yl)quinoxalin-5-yl)ethyl)amino)picolinic acid], the figures for the IC50 in experiment [1], in experiment [2] and in experiment [3] were 147 nM, 0.88 nM and above 10000 nM, respectively.

For `Cc1cc([C@@H](C)Nc2ccc(Cl)nc2C(=O)O)c2nc(N3CCc4ccn(C)c(=O)c4C3)c(C#N)nc2c1` [Example 222, (R)-6-chloro-3-((1-(2-cyano-7-methyl-3-(7-methyl-8-oxo-3,4,7,8-tetrahydro-2,7-naphthyridin-2(1H)-yl)quinoxalin-5-yl)ethyl)amino)picolinic acid], the IC50 was 225 nM in experiment [1], 4.2 nM in experiment [2] and above 10000 nM in experiment [3].

Turning to `Cc1cc([C@@H](C)Nc2ccc(Cl)nc2C(=O)O)c2nc(-c3ccc(=O)n(C)c3)c(C#N)nc2c1` [Example 223, (R)-6-chloro-3-((1-(2-cyano-7-methyl-3-(1-methyl-6-oxo-1,6-dihydropyridin-3-yl)quinoxalin-5-yl)ethyl)amino)picolinic acid], the IC50 is 1030 nM in experiment [1], 20 nM in experiment [2] and above 10000 nM in experiment [3].

Turning to `Cc1cc([C@@H](C)Nc2ccc(Cl)nc2C(=O)O)c2nc(N3CC4CS(=O)(=O)CC4C3)c(C#N)nc2c1` (stereo partly drawn) [Example 228, 6-chloro-3-(((1R)-1-(2-cyano-3-(2,2-dioxidotetrahydro-1H-thieno[3,4-c]pyrrol-5(3H)-yl)-7-methylquinoxalin-5-yl)ethyl)amino)picolinic acid], the IC50 in experiment [1] is 368 nM; in experiment [2], 33.2 nM; in experiment [3] it was above 10000 nM.

Consider `C[C@@H](Nc1ccc(Cl)nc1C(=O)O)c1cc(C(F)F)cc2nc(C#N)c(N3CCOCC3)nc12` [Example 231, (R)-6-chloro-3-((1-(2-cyano-7-(difluoromethyl)-3-morpholinoquinoxalin-5-yl)ethyl)amino)picolinic acid], for which the IC50 in experiment [1] was 25.8 nM; in experiment [2], 1.3 nM; in experiment [3] it was above 10000 nM.

Take `Cc1cc([C@@H](C)Nc2ccc(Cl)nc2C(=O)O)c2nc(C3CCOCC3)c(C#N)nc2c1` [Example 233, (R)-6-chloro-3-((1-(2-cyano-7-methyl-3-(tetrahydro-2H-pyran-4-yl)quinoxalin-5-yl)ethyl)amino)picolinic acid]: the IC50 was 84.4 nM in experiment [1], 0.17 nM in experiment [2] and above 10000 nM in experiment [3].

As to `Cc1cc([C@@H](C)Nc2ccc(Cl)nc2C(=O)O)c2nc(N3CCO[C@H](CO)C3)c(C#N)nc2c1` [Example 235A, 6-chloro-3-(((R)-1-(2-cyano-3-((S)-2-(hydroxymethyl)morpholino)-7-methylquinoxalin-5-yl)ethyl)amino)picolinic acid], the IC50 was 183 nM in experiment [1], 2 nM in experiment [2] and above 10000 nM in experiment [3].

`Cc1cc([C@@H](C)Nc2ccc(Cl)nc2C(=O)O)c2nc(N3CCO[C@@H](CO)C3)c(C#N)nc2c1` [Example 235B, 6-chloro-3-(((R)-1-(2-cyano-3-((R)-2-(hydroxymethyl)morpholino)-7-methylquinoxalin-5-yl)ethyl)amino)picolinic acid]: the IC50 in experiment [1] is 262 nM; in experiment [2], 1.8 nM; in experiment [3], above 10000 nM.
